Measurements: patent US20250179078A1, “INHIBITORS OF NLRP3” (PTC THERAPEUTICS, INC., priority 2022, published 2025)

Biological target: T1, NLRP3 (Homo sapiens, UniProt Q96P20)
T1 construct: host or cells: THP-1 cells differentiated with PMA
Assay: IL-1β Secretion Assay (NLRP3-dependent IL1β secretion in THP1 cells)
Assay type: cell-based
Conditions: PMA-differentiated THP-1 cells; compounds incubated 20 h; 2.5 μM Nigericin 3 h; HTRF IL-1β readout; read-out: IC50 IL-1β Inhibition
In short: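 THP-1 cells differentiated with 100 ng/mL PMA for 24 h, then given compound (7-point 3-fold series, 1:200 from DMSO) for 20 h in RPMI+5% FBS. NLRP3 activated with 2.5 μM nigericin for 3 h; secreted IL-1β measured by HTRF; IC50 from logistic fit of % inhibition.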

T1 sequence (Q96P20 whole entry): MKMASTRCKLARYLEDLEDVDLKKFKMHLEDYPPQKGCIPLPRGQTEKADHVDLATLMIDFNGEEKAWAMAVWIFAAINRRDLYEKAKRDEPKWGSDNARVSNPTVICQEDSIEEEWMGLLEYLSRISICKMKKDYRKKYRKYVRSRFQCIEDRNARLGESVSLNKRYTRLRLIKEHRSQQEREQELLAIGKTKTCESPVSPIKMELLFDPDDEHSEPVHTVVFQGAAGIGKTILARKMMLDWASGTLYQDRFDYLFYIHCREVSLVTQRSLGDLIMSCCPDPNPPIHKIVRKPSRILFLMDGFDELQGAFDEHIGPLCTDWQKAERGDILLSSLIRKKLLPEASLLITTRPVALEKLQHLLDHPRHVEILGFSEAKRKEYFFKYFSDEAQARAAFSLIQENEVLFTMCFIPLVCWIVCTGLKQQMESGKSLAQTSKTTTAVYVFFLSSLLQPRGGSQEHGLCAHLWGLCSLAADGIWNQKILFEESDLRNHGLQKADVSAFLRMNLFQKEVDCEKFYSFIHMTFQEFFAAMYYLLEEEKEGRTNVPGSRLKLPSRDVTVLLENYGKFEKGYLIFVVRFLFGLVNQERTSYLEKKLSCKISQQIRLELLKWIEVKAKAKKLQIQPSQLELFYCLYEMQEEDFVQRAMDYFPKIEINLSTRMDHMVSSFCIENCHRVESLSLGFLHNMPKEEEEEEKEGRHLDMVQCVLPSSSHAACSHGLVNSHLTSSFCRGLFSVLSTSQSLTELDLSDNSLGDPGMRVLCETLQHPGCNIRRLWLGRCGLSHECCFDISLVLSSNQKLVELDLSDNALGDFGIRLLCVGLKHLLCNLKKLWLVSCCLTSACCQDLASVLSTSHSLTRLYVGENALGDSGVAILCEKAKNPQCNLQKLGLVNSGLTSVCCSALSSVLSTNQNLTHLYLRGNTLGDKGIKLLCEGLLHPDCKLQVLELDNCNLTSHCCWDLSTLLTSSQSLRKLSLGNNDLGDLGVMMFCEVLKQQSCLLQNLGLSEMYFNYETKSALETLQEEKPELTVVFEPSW

| Structure (SMILES) | IC50 |
| --- | --- |
| Cc1cc2c(-c3ccc(C(F)(F)F)cc3C(F)(F)F)nnc(N[C@H]3C[C@@](C)(O)C3)n2c1 [Compound 107, (1s,3s)-3-({1-[2,4-bis(trifluoromethyl)phenyl]-7-methylpyrrolo[1,2-d][1,2,4]triazin-4-yl}amino)-1-methylcyclobutan-1-ol] | 10 to 100 nM |
| COc1ccc(-c2nnc(N[C@H]3C[C@@](C)(O)C3)n3cc(C)cc23)c(OC(F)(F)F)c1 [Compound 108, (1s,3s)-3-({1-[4-methoxy-2-(trifluoromethoxy)phenyl]-7-methylpyrrolo[1,2-d][1,2,4]triazin-4-yl}amino)-1-methylcyclobutan-1-ol] | 1 to 10 nM |
| Cc1cc2c(-c3ccc(C(F)(F)F)cc3C(F)(F)F)nnc(N[C@@H]3CCCN(C)C3)n2c1 [Compound 109, 1-[2,4-bis(trifluoromethyl)phenyl]-7-methyl-N-[(3R)-1-methylpiperidin-3-yl]pyrrolo[1,2-d][1,2,4]triazin-4-amine] | 1 to 10 nM |
| O[C@@H]1CCCC[C@H]1Nc1nnc(-c2ccc(C(F)(F)F)cc2OC(F)F)c2cccn12 [Compound 110, (1R,2R)-2-({1-[2-(difluoromethoxy)-4-(trifluoromethyl)phenyl]pyrrolo[1,2-d][1,2,4]triazin-4-yl}amino)cyclohexan-1-ol] | 1 to 10 nM |
| O[C@H]1CCCC[C@@H]1Nc1nnc(-c2ccc(C(F)(F)F)cc2CC(F)(F)F)c2cccn12 [Compound 111, (1S,2S)-2-({1-[2-(2,2,2-trifluoroethyl)-4-(trifluoromethyl)phenyl]pyrrolo[1,2-d][1,2,4]triazin-4-yl}amino)cyclohexan-1-ol] | 1 to 10 nM |
| O[C@@H]1COCC[C@H]1Nc1nnc(-c2ccc(C(F)(F)F)cc2CC(F)(F)F)c2cccn12 [Compound 112, (3S,4R)-4-({1-[2-(2,2,2-trifluoroethyl)-4-(trifluoromethyl)phenyl]pyrrolo[1,2-d][1,2,4]triazin-4-yl}amino)oxan-3-ol] | 1 to 10 nM |
| O[C@H]1COCC[C@@H]1Nc1nnc(-c2ccc(C(F)(F)F)cc2CC(F)(F)F)c2cccn12 [Compound 113, (3R,4S)-4-({1-[2-(2,2,2-trifluoroethyl)-4-(trifluoromethyl)phenyl]pyrrolo[1,2-d][1,2,4]triazin-4-yl}amino)oxan-3-ol] | 1 to 10 nM |
| O[C@H]1COCC[C@H]1Nc1nnc(-c2ccc(C(F)(F)F)cc2CC(F)(F)F)c2cccn12 [Compound 114, (3R,4R)-4-({1-[2-(2,2,2-trifluoroethyl)-4-(trifluoromethyl)phenyl]pyrrolo[1,2-d][1,2,4]triazin-4-yl}amino)oxan-3-ol] | 1 to 10 nM |
| O[C@@H]1COCC[C@@H]1Nc1nnc(-c2ccc(C(F)(F)F)cc2CC(F)(F)F)c2cccn12 [Compound 115, (3S,4S)-4-({1-[2-(2,2,2-trifluoroethyl)-4-(trifluoromethyl)phenyl]pyrrolo[1,2-d][1,2,4]triazin-4-yl}amino)oxan-3-ol] | 1 to 10 nM |
| COc1ccc(-c2nnc(NC3CCNC3=O)n3ccc(F)c23)c(C(F)(F)F)c1 (centres unmarked) [Compound 116, 3-({8-fluoro-1-[4-methoxy-2-(trifluoromethyl)phenyl]pyrrolo[1,2-d][1,2,4]triazin-4-yl}amino)pyrrolidin-2-one] | 10 to 100 nM |
| COc1ccc(-c2nnc(Nc3cc[nH]n3)n3ccc(F)c23)c(C(F)(F)F)c1 [Compound 117, 8-fluoro-1-[4-methoxy-2-(trifluoromethyl)phenyl]-N-(1H-pyrazol-3-yl)pyrrolo[1,2-d][1,2,4]triazin-4-amine] | 10 to 100 nM |
| COc1cc(C)c(-c2nnc(N[C@@H]3CCCN(C)C3)n3cccc23)c(F)c1 [Compound 118, 1-(2-fluoro-4-methoxy-6-methylphenyl)-N-[(3R)-1-methylpiperidin-3-yl]pyrrolo[1,2-d][1,2,4]triazin-4-amine] | < 1 nM |
| CCN1CCC[C@@H](Nc2nnc(-c3ccc(C(F)(F)F)cc3OC(F)(F)F)c3cccn23)C1 [Compound 119, N-[(3R)-1-ethylpiperidin-3-yl]-1-[2-(trifluoromethoxy)-4-(trifluoromethyl)phenyl]pyrrolo[1,2-d][1,2,4]triazin-4-amine] | < 1 nM |
| OCCN1CCC[C@@H](Nc2nnc(-c3ccc(C(F)(F)F)cc3OC(F)(F)F)c3cccn23)C1 [Compound 120, 2-[(3R)-3-({1-[2-(trifluoromethoxy)-4-(trifluoromethyl)phenyl]pyrrolo[1,2-d][1,2,4]triazin-4-yl}amino)piperidin-1-yl]ethan-1-ol] | < 1 nM |
| O[C@H]1CCCC[C@@H]1Nc1nnc(-c2ccc(C(F)(F)F)cc2OC(F)(F)F)c2cccn12 [Compound 121, (1S,2S)-2-({1-[2-(trifluoromethoxy)-4-(trifluoromethyl)phenyl]pyrrolo[1,2-d][1,2,4]triazin-4-yl}amino)cyclohexan-1-ol] | 10 to 100 nM |
| O[C@H]1CCC[C@@H](Nc2nnc(-c3ccc(C(F)(F)F)cc3OC(F)(F)F)c3cccn23)C1 [Compound 122, (1S,3R)-3-({1-[2-(trifluoromethoxy)-4-(trifluoromethyl)phenyl]pyrrolo[1,2-d][1,2,4]triazin-4-yl}amino)cyclohexan-1-ol] | 1 to 10 nM |
| C[C@]1(O)C[C@@H](Nc2nnc(-c3ccc(C(F)(F)F)cc3OC(F)(F)F)c3cccn23)C1 [Compound 123, (1s,3s)-1-methyl-3-({1-[2-(trifluoromethoxy)-4-(trifluoromethyl)phenyl]pyrrolo[1,2-d][1,2,4]triazin-4-yl}amino)cyclobutan-1-ol] | 1 to 10 nM |
| O=C1NCCC1Nc1nnc(-c2ccc(C(F)(F)F)cc2OC(F)(F)F)c2cccn12 (centres unmarked) [Compound 124, 3-({1-[2-(trifluoromethoxy)-4-(trifluoromethyl)phenyl]pyrrolo[1,2-d][1,2,4]triazin-4-yl}amino)pyrrolidin-2-one] | 1 to 10 nM |
| COc1ccc(-c2nnc(NCc3nnnn3C)n3cccc23)c(OC(F)(F)F)c1 [Compound 125, 1-[4-methoxy-2-(trifluoromethoxy)phenyl]-N-[(1-methyl-1H-tetrazol-5-yl)methyl]pyrrolo[1,2-d][1,2,4]triazin-4-amine] | 100 to 300 nM |
| O[C@@H]1CCCCC[C@H]1Nc1nnc(-c2ccc(C(F)(F)F)cc2CC(F)(F)F)c2cccn12.O[C@H]1CCCCC[C@@H]1Nc1nnc(-c2ccc(C(F)(F)F)cc2CC(F)(F)F)c2cccn12 [Compound 127, (1R,2R)-2-({1-[2-(2,2,2-trifluoroethyl)-4-(trifluoromethyl)phenyl]pyrrolo[1,2-d][1,2,4]triazin-4-yl}amino)cycloheptan-1-ol AND (1S,2S)-2-({1-[2-(2,2,2-trifluoroethyl)-4-(trifluoromethyl)phenyl]pyrrolo[1,2-d][1,2,4]triazin-4-yl}amino)cycloheptan-1-ol] | 10 to 100 nM |
| O[C@@H]1CCCC[C@H](Nc2nnc(-c3ccc(C(F)(F)F)cc3CC(F)(F)F)c3cccn23)C1.O[C@H]1CCCC[C@@H](Nc2nnc(-c3ccc(C(F)(F)F)cc3CC(F)(F)F)c3cccn23)C1 [Compound 128, (1S,3R)-3-({1-[2-(2,2,2-trifluoroethyl)-4-(trifluoromethyl)phenyl]pyrrolo[1,2-d][1,2,4]triazin-4-yl}amino)cycloheptan-1-ol AND (1R,3S)-3-({1-[2-(2,2,2-trifluoroethyl)-4-(trifluoromethyl)phenyl]pyrrolo[1,2-d][1,2,4]triazin-4-yl}amino)cycloheptan-1-ol] | 1 to 10 nM |
| COc1ccc(-c2nnc(N[C@H]3C[C@@](C)(O)C3)n3ccc(F)c23)c(C(F)(F)F)c1 [Compound 130, (1s,3s)-3-({8-fluoro-1-[4-methoxy-2-(trifluoromethyl)phenyl]pyrrolo[1,2-d][1,2,4]triazin-4-yl}amino)-1-methylcyclobutan-1-ol] | 1 to 10 nM |
| COc1ccc(-c2nnc(N[C@@H]3CCCN(C)C3)n3cc(C)cc23)c(OC(F)(F)F)c1 [Compound 131, 1-[4-methoxy-2-(trifluoromethoxy)phenyl]-7-methyl-N-[(3R)-1-methylpiperidin-3-yl]pyrrolo[1,2-d][1,2,4]triazin-4-amine] | < 1 nM |
| Cc1cc2c(-c3ccc(C(F)(F)F)cc3C(F)(F)F)nnc(N[C@H]3CCCC[C@@H]3O)n2c1 [Compound 132, (1S,2S)-2-({1-[2,4-bis(trifluoromethyl)phenyl]-7-methylpyrrolo[1,2-d][1,2,4]triazin-4-yl}amino)cyclohexan-1-ol] | 10 to 100 nM |
| COc1ccc(-c2nnc(N[C@H]3CCCC[C@@H]3O)n3cc(C)cc23)c(OC(F)(F)F)c1 [Compound 133, (1S,2S)-2-({1-[4-methoxy-2-(trifluoromethoxy)phenyl]-7-methylpyrrolo[1,2-d][1,2,4]triazin-4-yl}amino)cyclohexan-1-ol] | 10 to 100 nM |
| CCN1CC[C@@H](O)[C@@H](Nc2nnc(-c3ccc(C(F)(F)F)cc3C(F)(F)F)c3cc(C)cn23)C1 [Compound 134, (3S,4R)-3-({1-[2,4-bis(trifluoromethyl)phenyl]-7-methylpyrrolo[1,2-d][1,2,4]triazin-4-yl}amino)-1-ethylpiperidin-4-ol] | 1 to 10 nM |
| CCN1CC[C@@H](O)[C@@H](Nc2nnc(-c3ccc(OC)cc3OC(F)(F)F)c3cc(C)cn23)C1 [Compound 135, (3S,4R)-1-ethyl-3-({1-[4-methoxy-2-(trifluoromethoxy)phenyl]-7-methylpyrrolo[1,2-d][1,2,4]triazin-4-yl}amino)piperidin-4-ol] | < 1 nM |
| Cc1ccc(-c2nnc(N[C@@H]3CCCC[C@H]3O)n3cccc23)c(OC(F)F)c1 [Compound 136, (1R,2R)-2-({1-[2-(difluoromethoxy)-4-methylphenyl]pyrrolo[1,2-d][1,2,4]triazin-4-yl}amino)cyclohexan-1-ol] | 1 to 10 nM |
| Cc1ccc(-c2nnc(N[C@@H]3CCCC[C@@H]3O)n3cccc23)c(OC(F)F)c1 [Compound 137, (1S,2R)-2-({1-[2-(difluoromethoxy)-4-methylphenyl]pyrrolo[1,2-d][1,2,4]triazin-4-yl}amino)cyclohexan-1-ol] | 1 to 10 nM |
